Experimental data taken from patent publication US20090143279A1 (priority 2007, published 2009).
Where two headings read alike, the source gives them in different places.

Tests used:
[1] = system: mitochondrial membrane potential; type: cell-based, mouse
mtOXPHOS transcripts = type: cell-based, mouse
OXPHOS gene expression = type: cell-based, mouse
[2] = system: cellular dehydrogenase activity
nuOXPHOS transcripts = type: cell-based, mouse
reactive oxygen species = type: cell-based, mouse
cytochrome c = type: cell-based, mouse
[3] = composite Z-score vs DMSO, Conc 20 μM
[4] = composite Z-score vs DMSO wells, Conc 20 μM
[5] = Conc 20 μM, normalized score vs mock-treated (DMSO) wells
[6] = 14.44 μM, composite Z-score vs DMSO
[7] = composite Z-score vs mock-treated (DMSO) wells, Conc 20 μM
[8] = normalized composite Z-score vs mock-treated (DMSO) wells, Conc 20 μM
[9] = 20 μM, composite Z-score vs DMSO

cytochrome c, sequence (P62897 whole entry): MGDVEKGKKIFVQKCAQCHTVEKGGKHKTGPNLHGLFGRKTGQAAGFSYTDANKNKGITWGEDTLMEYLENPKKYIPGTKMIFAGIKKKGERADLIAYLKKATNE

Compound: C[C@@H]1O[C@@H](O[C@H]2C[C@@H](O)[C@]3(CO)[C@H]4[C@H](O)C[C@]5(C)[C@@H](C6=CC(=O)OC6)CC[C@]5(O)[C@@H]4CC[C@]3(O)C2)[C@H](O)[C@H](O)[C@H]1O [ouabain]
- ΔΨm [1, 3]: −1.093
- mitoOX (mtOXPHOS transcripts; [3]): −1.547
- Viability (C2C12 myotubes; [3]): −0.631
- GE-HTS (OXPHOS gene expression; [3]): −1.278
- MTT [2, 3]: −2.101
- nucOX (nuOXPHOS transcripts; [3]): −0.986
- ROS (reactive oxygen species; [3]): 0.466
- cyt c (cytochrome c; [3]): 0.262

Compound: CC(C)(Sc1cc(C(C)(C)C)c(O)c(C(C)(C)C)c1)Sc1cc(C(C)(C)C)c(O)c(C(C)(C)C)c1 [probucol]
- ΔΨm [1, 4]: −0.142
- mitoOX (mtOXPHOS transcripts; [4]): −0.136
- Viability (C2C12 myotubes; [4]): −0.586
- GE-HTS (OXPHOS gene expression; [4]): −0.053
- MTT [2, 4]: −1.114
- nucOX (nuOXPHOS transcripts; [4]): −0.002
- ROS (reactive oxygen species; [4]): 0.464
- cyt c (cytochrome c): −0.232
- cyt c (cytochrome c; [4]): −0.180

Compound: Oc1c(Cl)cc(Cl)cc1Sc1cc(Cl)cc(Cl)c1O [bithionol]
- ΔΨm [1, 4]: −2.723
- mitoOX (mtOXPHOS transcripts; [4]): −1.838
- Viability (C2C12 myotubes; [4]): −2.247
- GE-HTS (OXPHOS gene expression; [4]): −1.531
- MTT [2, 4]: 0.593
- nucOX (nuOXPHOS transcripts; [4]): −1.261
- ROS (reactive oxygen species; [4]): 1.449
- cyt c (cytochrome c; [4]): −2.613

Compound: CCn1cc(C(=O)O)c(=O)c2cc3c(cc21)OCO3 [oxolinic acid]
- ΔΨm [1, 4]: −0.640
- mitoOX (mtOXPHOS transcripts; [4]): 0.171
- Viability (C2C12 myotubes; [4]): −0.913
- GE-HTS (OXPHOS gene expression; [4]): 0.217
- MTT [2, 4]: −1.598
- nucOX (nuOXPHOS transcripts; [4]): 0.211
- ROS (reactive oxygen species; [4]): 0.681
- cyt c (cytochrome c): 0.227
- cyt c (cytochrome c; [4]): 0.083

Compound: CC(=O)Oc1cccc2c1C(=O)c1c(OC(C)=O)cc(C(=O)O)cc1C2=O [diacerin]
- ΔΨm (composite Z-score) [1, 5]: 0.195
- mitoOX (composite Z-score) (mtOXPHOS transcripts; [5]): −0.239
- Viability (composite Z-score) (C2C12 myotubes; [5]): −0.692
- GE-HTS (composite Z-score) (OXPHOS gene expression; [5]): −0.446
- MTT (composite Z-score) [2, 5]: −0.608
- nucOX (composite Z-score) (nuOXPHOS transcripts; [5]): −0.509
- ROS (composite Z-score) (reactive oxygen species; [5]): 0.228
- cyt c (composite Z-score) (cytochrome c; [5]): 0.389

Compound: CC(C)(C)NCC(O)c1cc(Cl)c(N)c(Cl)c1 (stereo not shown) [clenbuterol]
- ΔΨm [1, 6]: −1.139
- mitoOX (mtOXPHOS transcripts; [6]): 0.011
- Viability (C2C12 myotubes; [6]): 0.134
- GE-HTS (OXPHOS gene expression; [6]): 0.054
- MTT [2, 6]: −1.330
- nucOX (nuOXPHOS transcripts; [6]): 0.063
- ROS (reactive oxygen species; [6]): 0.914
- cyt c (cytochrome c; [6]): −0.261

Compound: CC(=O)c1c(O)c(C)c(O)c2c1oc1c(C(C)=O)c(O)c(C)c(O)c12 [diacetyldideisovaleryl-rhodomyrtoxin]
- ΔΨm [1, 7]: 1.937
- mitoOX (mtOXPHOS transcripts; [7]): −0.703
- Viability (C2C12 myotubes; [7]): −0.779
- GE-HTS (OXPHOS gene expression; [7]): −0.776
- MTT [2, 7]: 0.875
- nucOX (nuOXPHOS transcripts; [7]): −0.742
- ROS (reactive oxygen species; [7]): 0.967
- cyt c (cytochrome c; [7]): 0.057

Compound: 1,2alpha-epoxydeacetoxydihydrogedunin
- ΔΨm [1, 8]: 0.210
- mitoOX (mtOXPHOS transcripts; [8]): −0.468
- Viability (C2C12 myotubes; [8]): 0.074
- GE-HTS (OXPHOS gene expression; [8]): −0.921
- MTT [2, 8]: −2.000
- nucOX (nuOXPHOS transcripts; [8]): −1.080
- ROS (reactive oxygen species; [8]): 3.350
- cyt c (cytochrome c; [8]): −0.224

Compound: C[C@]12CC[C@H](O)C[C@H]1CC[C@@H]1[C@@H]2[C@H](O)C[C@]2(C)[C@@H](C3=CC(=O)OC3)CC[C@]12O [sarmentogenin]
- ΔΨm [1, 8]: −0.354
- mitoOX (mtOXPHOS transcripts; [8]): 0.077
- Viability (C2C12 myotubes; [8]): 0.694
- GE-HTS (OXPHOS gene expression; [8]): 0.508
- MTT [2, 8]: −0.191
- nucOX (nuOXPHOS transcripts; [8]): 0.691
- ROS (reactive oxygen species; [8]): −0.151
- cyt c (cytochrome c; [8]): 0.614

Compound: CC1(C)S[C@@H]2[C@H](N3C(=O)[C@@H](c4ccccc4)NC3(C)C)C(=O)N2[C@H]1C(=O)O [hetacillin]
- ΔΨm [1, 3]: −0.787
- mitoOX (mtOXPHOS transcripts; [3]): −0.302
- Viability (C2C12 myotubes; [3]): −0.642
- GE-HTS (OXPHOS gene expression; [3]): −0.200
- MTT [2, 3]: −0.663
- nucOX (nuOXPHOS transcripts; [3]): −0.094
- ROS (reactive oxygen species; [3]): 1.132
- cyt c (cytochrome c; [3]): 0.731

Compound: CCOc1ccc(C(=O)C2=C(O)C(OC)C(O)(OC)C=C2)cc1 (stereo not shown)
- ΔΨm (composite Z-score) [1, 5]: 0.089
- mitoOX (composite Z-score) (mtOXPHOS transcripts; [5]): −1.568
- Viability (composite Z-score) (C2C12 myotubes; [5]): −0.048
- GE-HTS (composite Z-score) (OXPHOS gene expression; [5]): −1.530
- MTT (composite Z-score) [2, 5]: −1.130
- nucOX (composite Z-score) (nuOXPHOS transcripts; [5]): −1.393
- ROS (composite Z-score) (reactive oxygen species; [5]): −0.264
- cyt c (composite Z-score) (cytochrome c; [5]): 0.559

Compound: pteryxin
- ΔΨm (composite Z-score) [1, 5]: 0.300
- mitoOX (composite Z-score) (mtOXPHOS transcripts; [5]): −0.108
- Viability (composite Z-score) (C2C12 myotubes; [5]): −0.681
- GE-HTS (composite Z-score) (OXPHOS gene expression; [5]): −0.101
- MTT (composite Z-score) [2, 5]: −1.515
- nucOX (composite Z-score) (nuOXPHOS transcripts; [5]): −0.097
- ROS (composite Z-score) (reactive oxygen species; [5]): 1.106
- cyt c (composite Z-score) (cytochrome c; [5]): 0.711

Compound: COP(=S)(OC)Oc1ccc([N+](=O)[O-])cc1 [methyl parathione]
- ΔΨm [1]: −0.353
- mitoOX (mtOXPHOS transcripts): 0.450
- Viability (C2C12 myotubes): 1.967
- GE-HTS (OXPHOS gene expression): 0.500
- MTT [2]: −0.341
- nucOX (nuOXPHOS transcripts): 0.500
- ROS (reactive oxygen species): 0.218
- cyt c (cytochrome c): 0.414

Compound: COc1c(-c2coc3cc4c(cc3c2=O)CC(O)C(C)(C)O4)ccc2c1C=CC(C)(C)O2 (stereo not shown) [mundulone, reference compound]
- ΔΨm [1, 8]: 3.037
- mitoOX (mtOXPHOS transcripts; [8]): −1.091
- Viability (C2C12 myotubes; [8]): −1.113
- GE-HTS (OXPHOS gene expression; [8]): −1.719
- MTT [2, 8]: −2.487
- nucOX (nuOXPHOS transcripts; [8]): −1.888
- ROS (reactive oxygen species; [8]): −0.141
- cyt c (cytochrome c; [8]): −0.843

Compound: C[C@H]1C[C@H]2[C@@H]3CCC4=CC(=O)C=C[C@]4(C)[C@@]3(F)[C@@H](O)C[C@]2(C)[C@@]1(O)C(=O)CO [betamethasone]
- ΔΨm (composite Z-score) [1]: 0.849
- mitoOX (composite Z-score) (mtOXPHOS transcripts): 0.853
- Viability (composite Z-score) (C2C12 myotubes): −0.984
- GE-HTS (composite Z-score) (OXPHOS gene expression): 0.740
- MTT (composite Z-score) [2]: −1.063
- nucOX (composite Z-score) (nuOXPHOS transcripts): 0.633
- ROS (composite Z-score) (reactive oxygen species): 0.541
- cyt c (composite Z-score) (cytochrome c): 0.130

Compound: CC12CCCC(O)(C1)C1CC(C)(C)C1CC2 (stereo not drawn) [beta-caryophyllene alcohol]
- ΔΨm [1, 8]: −0.433
- mitoOX (mtOXPHOS transcripts; [8]): 0.264
- Viability (C2C12 myotubes; [8]): −0.960
- GE-HTS (OXPHOS gene expression; [8]): 0.155
- MTT [2, 8]: −1.859
- nucOX (nuOXPHOS transcripts; [8]): 0.105
- ROS (reactive oxygen species; [8]): 1.180
- cyt c (cytochrome c; [8]): −1.030

Compound: Cc1cc(=O)[nH]c(=S)[nH]1 [methylthiouracil]
- ΔΨm [1, 9]: −0.553
- mitoOX (mtOXPHOS transcripts; [9]): −0.302
- Viability (C2C12 myotubes; [9]): −0.235
- GE-HTS (OXPHOS gene expression; [9]): −0.029
- MTT [2, 9]: −0.633
- nucOX (nuOXPHOS transcripts; [9]): 0.146
- ROS (reactive oxygen species; [9]): 0.815
- cyt c (cytochrome c; [9]): 0.846

Compound: CC(=O)O[C@H](CC(=O)[O-])C[N+](C)(C)C [acetylcarnitine]
- ΔΨm [1, 4]: −0.930
- mitoOX (mtOXPHOS transcripts; [4]): −0.943
- Viability (C2C12 myotubes; [4]): −0.980
- GE-HTS (OXPHOS gene expression; [4]): −1.051
- MTT [2, 4]: −1.275
- nucOX (nuOXPHOS transcripts; [4]): −1.015
- ROS (reactive oxygen species; [4]): 0.476
- cyt c (cytochrome c; [4]): −0.192

Compound: OC[C@@H](O)[C@@H](OC1O[C@H](CO)[C@@H](O)[C@H](O)[C@H]1O)[C@H](O)[C@@H](O)CO (stereo partly shown) [glucitol-4-gucopyanoside]
- ΔΨm (composite Z-score) [1, 5]: −0.454
- mitoOX (composite Z-score) (mtOXPHOS transcripts; [5]): −1.006
- Viability (composite Z-score) (C2C12 myotubes; [5]): −0.508
- GE-HTS (composite Z-score) (OXPHOS gene expression; [5]): −1.143
- MTT (composite Z-score) [2, 5]: −0.795
- nucOX (composite Z-score) (nuOXPHOS transcripts; [5]): −1.087
- ROS (composite Z-score) (reactive oxygen species; [5]): 0.351
- cyt c (composite Z-score) (cytochrome c; [5]): 0.305
